Test results published in the supplement of paper PMC10307832.

Legend:
Assay in all cases: relative viability (nuclei count vs DMSO), 5 days (fraction); higher = more cells survive
[1] = compound: O=C(NC1CCNCC1)c1n[nH]cc1NC(=O)c1c(Cl)cccc1Cl [AT-7519] + CS(=O)(=O)N1CCN(Cc2cc3nc(-c4cccc5[nH]ncc45)nc(N4CCOCC4)c3s2)CC1 [Pictilisib] (partner 1 µM)
Summary of the method: (§1)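 Cells from lung cancer lines were seeded into 1536-well plates and, one day later, dosed by pin tool. Treatments were either a single drug or a fixed dose of an anchor drug with five library-drug doses (not always all listed) in √10 steps. After 5 days, nuclei were stained in a one-step fixation (final 0.05% Triton X-100, 1% formaldehyde, 1 ug/ml Hoechst) and counted on 4× images, and relative viability is the treated-to-vehicle nuclei ratio, as the median of duplicate plates.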

[2] = compound: O=C(NC1CCNCC1)c1n[nH]cc1NC(=O)c1c(Cl)cccc1Cl [AT-7519] + Nc1nc2[nH]cc(CCc3ccc(C(=O)N[C@@H](CCC(=O)O)C(=O)O)cc3)c2c(=O)[nH]1 [Pemetrexed] (partner 0.2 µM)
Summary of the method: as §1

[3] = compound: C1=CC2=C(C=C(C(=C2N=C1)O)N=NC3=CC4=C(C=C3)C=C(C=C4)S(=O)(=O)O)S(=O)(=O)O + Cc1nc(NC(=O)N2CCC[C@H]2C(N)=O)sc1-c1ccnc(C(C)(C)C(F)(F)F)c1 [Alpelisib] (partner 2 µM)
Summary of the method: as §1

[4] = compound: C1=CC2=C(C=C(C(=C2N=C1)O)N=NC3=CC4=C(C=C3)C=C(C=C4)S(=O)(=O)O)S(=O)(=O)O + CC(=O)c1c(C)c2cnc(Nc3ccc(N4CCNCC4)cn3)nc2n(C2CCCC2)c1=O [Palbociclib] (partner 0.5 µM)
Summary of the method: as §1

Cell Line	relative viability ([1]; first compound 0.01 µM)	relative viability ([1]; first compound 0.03162 µM)	relative viability ([1]; first compound 0.3162 µM)	relative viability ([1]; first compound 1 µM)	relative viability ([2]; first compound 0.01 µM)	relative viability ([2]; first compound 0.03162 µM)	relative viability ([2]; first compound 0.3162 µM)	relative viability ([2]; first compound 1 µM)	relative viability ([3]; first compound 0.08 µM)	relative viability ([3]; first compound 0.253 µM)	relative viability ([3]; first compound 0.8 µM)	relative viability ([3]; first compound 2.53 µM)	relative viability ([3]; first compound 8 µM)	relative viability ([4]; first compound 0.08 µM)	relative viability ([4]; first compound 0.253 µM)	relative viability ([4]; first compound 0.8 µM)	relative viability ([4]; first compound 2.53 µM)	relative viability ([4]; first compound 8 µM)
NCI-H1734	0.552	0.452	0.439	0.252	0.426	0.435	0.383	0.366	0.746	0.692	0.636	0.638	0.689	0.367	0.323	0.344	0.375	0.329
HOP-62	0.817	0.742	0.486	0.293	0.359	0.335	0.302	0.328	1.27	1.14	1.19	0.817	0.704	0.481	0.423	0.42	0.513	0.499
LOU-NH91	0.551	0.536	0.516	0.479	0.306	0.359	0.385	0.506	0.783	0.744	0.703	0.761	0.675	0.573	0.524	0.503	0.559	0.558
NCI-H2228	0.357	0.371	0.473	0.149	0.404	0.395	0.313	0.265	0.687	0.787	0.778	0.655	0.695	0.81	0.726	0.79	0.822	0.92
PC-14	0.66	0.59	0.521	0.258	0.138	0.135	0.118	0.103	1.03	0.875	0.891	0.994	0.967	0.653	0.52	0.548	0.597	0.474
NCI-H1437	0.471	0.392	0.29	0.133	0.325	0.326	0.35	0.229	1.06	0.995	0.935	0.94	0.929	0.356	0.321	0.308	0.3	0.352
NCI-H460	0.346	0.446	0.37	0.286	0.0626	0.0564	0.0558	0.0636	0.545	0.456	0.511	0.5	0.291	0.174	0.081	0.183	0.279	0.229
NCI-H1666	0.405	0.425	0.39	0.145	0.871	0.777	0.828	0.651	0.985	0.837	1.05	0.994	1.04	0.667	0.704	0.626	0.668	0.645
NCI-H1651	0.59	0.478	0.397	0.41	0.677	0.562	0.556	0.744	1.09	1.02	1.16	1.08	0.895	0.522	0.502	0.511	0.55	0.499
NCI-H1755	0.444	0.379	0.346	0.297	0.413	0.461	0.566	0.442	1.02	0.874	0.933	0.949	0.956	0.473	0.438	0.437	0.468	0.415
NCI-H661	0.398	0.386	0.399	0.289	0.945	0.953	0.99	0.262	0.746	0.467	0.54	0.703	0.967	0.4	0.407	0.44	0.443	0.421
HARA	0.361	0.354	0.554	0.279	0.234	0.298	0.25	0.296	0.907	0.873	0.791	0.894	0.845	0.249	0.244	0.277	0.221	0.245
NCI-H23	0.534	0.438	0.428	0.123	0.563	0.734	0.591	0.494	0.753	0.676	0.614	0.705	0.807	0.538	0.471	0.448	0.574	0.477
LCLC-97TM1	0.196	0.176	0.211	0.152	0.182	0.156	0.152	0.165		0.296		0.248	0.296	0.236	0.258	0.189	0.222	0.257
EPLC-272H	0.384	0.311	0.249	0.17	0.268	0.328	0.303	0.0761	0.996	0.831	0.876	0.963	0.944	0.369	0.31	0.325	0.371	0.316
